Assay results from US20080114005A1, “Fibrate Compounds Having Ppar Agonist Activity” (Dr. Reddy's Laboratories Limited, priority 2004, published 2008).
Structures can show the parent of a compound that is named as a salt.

Columns and labels:
[1] = test system: hypercholesterolemic rat model; test: plasma triglyceride and cholesterol lowering activity in hypercholesterolemic rat model; assay type: in vivo, Sprague Dawley rats; settings: hypercholesterolemic rats, 3.0 mg/kg orally for 3 days; for Reduction (%) LDL: LDL cholesterol calculated by formula; for ↑HDL: increase of plasma HDL (under head Reduction (%)); for Reduction (%) TC: plasma total cholesterol; for Reduction (%) TG: plasma triglyceride
Procedure: The following procedure was used to determine plasma triglyceride and cholesterol lowering activity in hypercholesterolemic rat model.
Male Sprague Dawley rats (NIN stock) were bred in DRL animal house. Animals were maintained under 12 hour light and dark cycle at 25±1° C. Rats of 180-200 gram body weight range were used for the experiment. Animals are made hypercholesterolemic by feeding 2% cholesterol and 1% sodium cholate mixed with standard laboratory chow [National Institute of Nutrition (NIN), Hyderabad, India] for 6 days. Throughout the experimental period the animals were maintained on the same diet. The test compounds were administered orally at a dose mentioned in table for 3 days. Control group was treated with vehicle alone (0.25% CMC; 10 ml/kg). The blood samples were collected in fed state 1 hour after drug administration on 0 and 3 days of compound treatment. The blood was collected from the retro-orbital sinus through heparinised capillary in EDTA containing tubes. After centrifugation, plasma sample was separated for total cholesterol, HDL and triglyceride estimations. Measurement of plasma triglyceride, total cholesterol and HDL were done using commercial kits. LDL and VLDL cholesterol can be calculated from the data obtained for total cholesterol, HDL and triglyceride.
The percent reductions in blood sugar/triglycerides/total cholesterol were calculated according to the following formula:
OC=Zero day control group value
OT=Zero day treated group value
TC=Test day control group value
T=Test day treated group value.
The levels of LDL and VLDL cholesterol were calculated according to the formula:
VLDL cholesterol in mg/dl=[Total cholesterol-HDL cholesterol-LDL cholesterol] mg/dl.

human PPARα = target: T1, human PPARα (Homo sapiens, UniProt Q07869); test: in vitro PPARα transactivation, GAL4-LBD luciferase reporter in HEK-293 cells; assay type: cell-based; settings: luciferase fold activation relative to untreated cells
T1 construct: expressed in transfected cells; host or cells: HEK-293
T1 sequence (Q07869 239-466 limits assumed): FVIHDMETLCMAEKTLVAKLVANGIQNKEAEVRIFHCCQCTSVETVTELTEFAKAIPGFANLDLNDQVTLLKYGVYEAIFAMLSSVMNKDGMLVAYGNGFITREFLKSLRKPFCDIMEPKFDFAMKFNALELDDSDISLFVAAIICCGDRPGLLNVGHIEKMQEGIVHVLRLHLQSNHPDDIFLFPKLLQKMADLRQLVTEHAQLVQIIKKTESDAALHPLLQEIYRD
Description: A number of derivatives of the invention have shown PPAR agonist activity. The following procedure was used for in vitro determination of PPARα, γ and δ transactivation.
(§1) The ligand binding domain of human PPARγ1, PPARα or PPARδ was fused to the C-terminal end of DNA binding domain of yeast transcription factor GAL4 in eukaryotic expression vector. HEK-293 cells were transfected with either of these plasmids, reporter plasmid pGL2 (Gal4×5)˜SV40˜Luc and pAdVantage using superfect (Qiagen, Germany) for 3 hours. pAdVantage vector was used to enhance the luciferase expression. 48 hours after transfection, the cells were harvested and incubated overnight with or without test compounds at different concentrations. The cells were lysed and luciferase activity was measured using the LucLite kit (Packard USA). Luciferase activity was measured as fold activation relative to untreated cells.

Swiss albino mice = test: plasma triglyceride lowering activity in Swiss albino mice; assay type: in vivo; settings: 3.0 mg/kg orally for 6 days
Procedure: The properties of the derivatives of the invention were also evaluated in vivo. The following procedure was used to determine plasma triglyceride and total cholesterol lowering activity in Swiss albino mice.
Male Swiss albino mice (SAM) were obtained from National Institute Nutrition (NIN) and housed in Dr. Reddy's Laboratories Ltd (DRL) animal house. All these animals are maintained under 12 hour light and dark cycle at 25±1° C. Animals were given standard laboratory chow (NIN, Hyderabad, India) and water, ad libitum. SAM of 20-25 grams body weight range were used. See Oliver, P., Plancke, M. O., Marzin, D., Clavey, V., Sauzieres, J and Fruchart, J. C. Effects of fenofibrate, gemfibrozil and nicotinic acid on plasma lipoprotein levels in normal and hyperlipidemic mice, Atherosclerosis. 1988. 70: 107-114, incorporated herein by reference in its entirety. The test compounds can be administered orally to Swiss albino mice at the dose mentioned in table for 6 days. Control mice were treated with vehicle 0.25% Carboxymethylcellulose (CMC; dose 10 ml/kg). The blood samples from the retro-orbital sinus through heparinised capillary in EDTA containing tubes were collected in fed state 1 hour after drug administration on 0 and 6 days of treatment. After centrifugation plasma was separated for triglyceride measurement using commercial kits. See Wieland, O. Methods of Enzymatic analysis. Bergermeyer, H. O., Ed., 1963. 211-214; Trinder, P. Ann. Clin. Biochem. 1969. 6: 24-27, incorporated herein by reference in its entirety. Percent reduction was calculated as per the formula given in Petit, D., Bonnefis, M. T., Rey, C. and Infante, R. Effects of ciprofibrate on liver lipids and lipoprotein synthesis in normo- and hyperlipidemic rats. Atherosclerosis. 1988. 74 : 215-225.

human PPARδ = target: T2, human PPARδ (Homo sapiens, UniProt Q03181); test: in vitro PPARδ transactivation, GAL4-LBD luciferase reporter in HEK-293 cells; assay type: cell-based; settings: luciferase fold activation relative to untreated cells
T2 construct: expressed in transfected cells; host or cells: HEK-293
T2 sequence (Q03181 211-439 limits assumed): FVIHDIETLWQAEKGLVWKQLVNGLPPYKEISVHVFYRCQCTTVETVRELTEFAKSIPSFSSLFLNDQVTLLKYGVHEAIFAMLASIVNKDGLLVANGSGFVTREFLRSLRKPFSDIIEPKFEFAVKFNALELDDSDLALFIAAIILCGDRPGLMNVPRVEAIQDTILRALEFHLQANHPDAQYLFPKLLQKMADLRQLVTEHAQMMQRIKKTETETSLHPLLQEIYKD
Procedure: (§2) The following procedure was used for in vitro determination of PPARα, γ and δ transactivation.
as §1

human PPARγ1 = target: T3, human PPARγ1 (Homo sapiens, UniProt P37231); test: in vitro PPARγ transactivation, GAL4-LBD luciferase reporter in HEK-293 cells; assay type: cell-based; settings: luciferase fold activation relative to untreated cells
T3 construct: expressed in transfected cells; host or cells: HEK-293
T3 sequence (P37231 238-503 limits assumed): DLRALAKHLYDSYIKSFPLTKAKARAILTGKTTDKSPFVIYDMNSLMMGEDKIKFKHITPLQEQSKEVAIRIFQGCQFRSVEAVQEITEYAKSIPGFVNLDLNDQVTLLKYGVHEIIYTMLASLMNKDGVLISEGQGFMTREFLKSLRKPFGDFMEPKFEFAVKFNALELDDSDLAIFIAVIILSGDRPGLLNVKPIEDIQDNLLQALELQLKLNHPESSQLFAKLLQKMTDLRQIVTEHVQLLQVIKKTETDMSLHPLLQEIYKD
Procedure: as §2, §1

Structure (SMILES)	Reduction (%) LDL [1]	↑HDL [1]	Reduction (%) TC [1]	Reduction (%) TG [1]	PPARα activation (human PPARα; test compound at 1 μM)	PPARα activation (human PPARα; test compound at 10 μM)	% reduction in TG (Swiss albino mice)	PPARδ activation (human PPARδ; test compound at 1 μM)	PPARδ activation (human PPARδ; test compound at 10 μM)	melting point	PPARγ activation (human PPARγ1; test compound at 1 μM)	PPARγ activation (human PPARγ1; test compound at 10 μM)	Reduction (%) LDL ([1]; 3 mg/kg)	↑HDL ([1]; 3 mg/kg)	Reduction (%) TC ([1]; 3 mg/kg)	Reduction (%) TG ([1]; 3 mg/kg)	% reduction in TG (Swiss albino mice; 3 mg/kg)
CCCc1nn(C)c2c(=O)n(CCCc3cccc(OC(C)(C)C(=O)O)c3)c(C)nc12.N=C(N)NCCC[C@H](N)C(=O)O [Example 82, Argenine salt of 2-{3-[3-(1,5-dimethyl-7-oxo-3-propyl-1,7-dihydro-pyrazolo[4,3-d]pyrimidin-6-yl)-propyl]-phenoxy}-2-methyl-propionic acid]	72%	48%	68%	69%	7.1	8.4	81%	0	0	–	–	–	–	–	–	–	–
CCCc1nn(C)c2c(=O)n(CCOc3cccc(OC(C)(C)C(=O)O)c3)c(C)nc12 [Example 89, 2-{3-[2-(1,5-Dimethyl-7-oxo-3-propyl-1,7-dihydro-pyrazolo[4,3-d]pyrimidin-6-yl)-ethoxy]-phenoxy}-2-methyl-propionic acid]	68%	102%	65%	68%	2.1	7.4	60%	0	0.4	140 to 142 °C	0(54.5)	0(62.8)	–	–	–	–	–
CCCc1nn(C)c2c(=O)n(CCCc3ccc(OC(C)(CC)C(=O)O)cc3)c(C)nc12 (centres unmarked) [Example 95, 2-{4-[3-(1,5-Dimethyl-7-oxo-3-propyl-1,7-dihydro-pyrazolo[4,3-d]pyrimidin-6-yl)-propyl]-phenoxy}-2-methyl-butyric acid]	–	–	–	–	6.4	7.3	–	0.1	4.0	–	17.3(85.5)	36.6(110.3)	69%	212%	64%	67%	63%
CCCc1nn(C)c2c(=O)n(CCCc3ccc(OC(C)(CC)C(=O)O)cc3)c(C)nc12 (centres unmarked) [Example 96, Magnesium salt of 2-{4-[3-(1,5-dimethyl-7-oxo-3-propyl-1,7-dihydro-pyrazolo[4,3-d]pyrimidin-6-yl)-propyl]-phenoxy}-2-methyl-butyric acid]	–	–	–	–	–	–	–	–	–	–	–	–	67%	162%	63%	76%	60%
CCCc1nn(C)c2c(=O)n(CCOc3cccc(OC(C)(CC)C(=O)O)c3)c(C)nc12 (centres unmarked) [Example 98, 2-{3-[2-(1,5-Dimethyl-7-oxo-3-propyl-1,7-dihydro-pyrazolo[4,3-d]pyrimidin-6-yl)-ethoxy]-phenoxy}-2-methyl-butyric acid]	75%	267%	67%	81%	5.0	5.7	65%	0.6	3.3	130 to 132 °C	1.1(87.3)	0.3(85.3)	–	–	–	–	–
CCCc1nn(C)c2c(=O)n(CCOc3cccc(O[C@](C)(CC)C(=O)O)c3)c(C)nc12 [Example 100, R-(+)-2-{3-[2-(1,5-Dimethyl-7-oxo-3-propyl-1,7-dihydro-pyrazolo[4,3-d]pyrimidin-6-yl)-ethoxy]-phenoxy}-2-methyl-butyric acid]	76%	145%	70%	60%	–	–	76%	–	–	118 to 120 °C	–	–	–	–	–	–	–
CCCc1nn(C)c2c(=O)n(CCOc3cc(O[C@](C)(CC)C(=O)O)ccc3Cl)c(C)nc12 [Example 102, R-(+)-2-{4-Chloro-3-[2-(1,5-dimethyl-7-oxo-3-propyl-1,7-dihydro-pyrazolo[4,3-d]pyrimidin-6-yl)-ethoxy]-phenoxy}-2-methyl-butyric acid]	55%	45%	51%	51%	3.9	5.2	67%	1.7	1.3	98 to 100 °C	–	–	–	–	–	–	–
CCCc1nn(C)c2c(=O)n(CCOc3cccc(O[C@@](C)(CC)C(=O)O)c3)c(C)nc12 [Example 104, S-(−)-2-{3-[2-(1,5-Dimethyl-7-oxo-3-propyl-1,7-dihydro-pyrazolo[4,3-d]pyrimidin-6-yl)-ethoxy]-phenoxy}-2-methyl-butyric acid]	77%	158%	71%	72%	–	–	70%	–	–	119 to 120 °C	–	–	–	–	–	–	–
